Source: US20120027812A1, “INTRAOCULAR LENSES TREATED WITH ALKYLPHOSPHOCHOLINES FOR PHARMACOLOGICAL AFTERCATARACT PROPHYLAXIS” (priority 2009, published 2012)

Legend:
rat retina [1] = details: clinically administered doses (4 mg/ml); cited from earlier work
[2] = test system: human lens epithelial cells; test: APC-coated intraocular lens laid on cultured lens epithelial cells (Example 3, FIG. 6 and 7); type: cell-based; details: as coating on IOLs of hydrophobic acrylates, hydrophilic acrylates and silicones; MTT
Procedure: A tetrazolium reduction assay [MTT (3-[4,5-dimethylthiazol-2-yl]-2,5-diphenyltetrazolium bromide] (Sigma-Aldrich) was carried out to determine the cell count. The intraocular lenses were removed, the cells were washed with PBS and incubated with the MTT reagent for 1 hour at 37° C. Only vital cells metabolise the solution. Subsequently, the cell membrane was dissolved with DMSO (dimethylsulphoxide) and the optical thickness was measured in the ELISA reader at 550 nm. In this case, the optical thickness correlates with the number of proliferating cells.
The intraocular lenses coated with alkylphosphocholines are introduced into a cell culture volume of 500 μl, which corresponds to the volume of the human lens capsular bag in which the intraocular lenses are implanted in the human cataract operation. Moreover, the coated intraocular lenses in vitro are introduced into a cell culture with human lens epithelial cells which are already proliferating. […]
Effectiveness of an Intraocular Lens Coated with APCs in the Prophylaxis of Aftercataract Intraocular lenses are coated with APC, as explained in Example 1,m and kept sterile at room temperature. […] After 3, 5 and 7 days, the lenses are removed and the cell count of the cells left in the cell culture dishes are determined, as described in 2.1, by cell counters and by the MTT test. […]

rat eyes (retina) = details: seven days after a single injection into the vitreous body; cited from earlier work
cat eyes (retina) = test: Long-term tolerance after intravitreal administration in cat eyes; type: in vivo; details: 28 days after intravitreal administration
[3] = test system: Müller glial cells and subretinal pigment epithelial cells; details: single intravitreal administration one day after induced retinal detachment; cited from earlier work
rat retina [4] = test: Functional analysis on retina ex vivo (electroretinogram); details: concentration of up to 25 μM in the total solution
[5] = Stability of the coating to washing with physiological saline solution; type: physicochemical; details: repeated washing or rinsing with physiological saline solution
Description: 1.3 Stability of the coating 10 intraocular lenses were coated with erufosin, as described in example 1.2. The lenses were subsequently each separately transferred into new test tubes and subjected to four washing steps with physiological saline solution. In a further extraction step using methanol/acetonitrile (ratio 9:1), the erufosin adhering to the lenses was removed and determined by mass spectroscopy. The amount of erufosin determined was between […] per lens.

## C[C@]12C=CC(=O)C=C1CC[C@H]1[C@@H]3C[C@@H](O)[C@](O)(C(=O)CO)[C@@]3(C)C[C@H](O)[C@@]12F [triamcinolone]
Rat retina [1]
  retinal toxicity on the retina ex vivo test subject: retinal toxicity

## CCCCCCCC/C=C\CCCCCCCCOP(=O)([O-])OCC[N+](C)(C)C [OIPC, oleylphosphocholine]
[2]
  cell growth of lens epithelial cells which are already proliferating: can inhibit the cell growth

## CCCCCCCC/C=C\CCCCCCCCCCCCOP(=O)([O-])OCC[N+](C)(C)C [ErPC, erucylphosphocholine]
Rat eyes (retina)
  damage to the retinal function (light and electron microscopy, ERG): no damage to the retinal function could be detected
Cat eyes (retina)
  retinal toxicity: no sign of retinal toxicity

## CCCCCCCC/C=C\CCCCCCCCCCCCOP(=O)([O-])OCCC[N+](C)(C)C [ErPC3, erucylphosphohomocholine]
[3]
  intraretinal proliferation of Müller glial cells and subretinal pigment epithelial cells: significant inhibition
  morphologically detectable toxic side-effects: without morphologically detectable toxic side-effects
[2]
  cell growth of lens epithelial cells which are already proliferating: can inhibit the cell growth
Rat retina [4]
  changes in the electroretinogram: did not produce any changes in the electroretinogram
[5]
  removal of the coating from the lenses: no noticeable removal
